These results are taken from ChEMBL document CHEMBL4011591, “Discovery and pharmacological evaluation of a novel series of adamantyl cyanoguanidines as P2X7 receptor antagonists” (Eur J Med Chem, 2017).

Where only a bound is given, the exact number is not on record here.

A word on the IC50: it is the concentration at which inhibition is half-maximal. Broadly, the half-life is the time in which the quantity being followed falls by half. The low end stands for fast loss, the high end for slow loss.

Data set [1] concerns the target T1, P2X purinoceptor 7 (Homo sapiens, UniProt Q99572).
T1 sequence (Q99572 whole entry): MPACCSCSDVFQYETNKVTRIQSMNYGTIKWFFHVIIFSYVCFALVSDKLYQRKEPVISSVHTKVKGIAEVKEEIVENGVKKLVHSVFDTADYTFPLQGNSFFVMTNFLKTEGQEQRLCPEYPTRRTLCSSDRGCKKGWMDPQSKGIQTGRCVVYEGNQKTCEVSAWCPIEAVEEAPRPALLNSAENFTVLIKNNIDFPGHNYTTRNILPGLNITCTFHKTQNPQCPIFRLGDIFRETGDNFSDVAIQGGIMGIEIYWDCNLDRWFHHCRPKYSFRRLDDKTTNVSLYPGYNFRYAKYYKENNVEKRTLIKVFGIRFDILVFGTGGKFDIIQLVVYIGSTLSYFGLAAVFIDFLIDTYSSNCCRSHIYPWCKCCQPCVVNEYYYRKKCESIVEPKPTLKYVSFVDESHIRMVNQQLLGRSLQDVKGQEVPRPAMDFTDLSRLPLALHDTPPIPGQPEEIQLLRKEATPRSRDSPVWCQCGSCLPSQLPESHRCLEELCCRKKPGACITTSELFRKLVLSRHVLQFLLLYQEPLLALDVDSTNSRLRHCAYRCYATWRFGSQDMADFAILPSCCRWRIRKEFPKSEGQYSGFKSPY
Nature of the data set: Antagonist activity at P2X7 receptor in human THP1 cells assessed as inhibition of BzATP-induced YO-PRO-1 Iodide uptake measured every 30 secs for 1 hr by fluorescence assay. Type of data set: cell-based.

In data set [2] the target is T1, P2X purinoceptor 7. Nature of the data set: Antagonist activity at P2X7 receptor in LPS-stimulated human THP1 cells assessed as inhibition of LPS/BzATP-induced IL-1beta release preincubated for 30 mins followed by BzATP addition measured after 30 mins by ELISA. A general note: An ELISA detects its analyte on a solid surface through an enzyme-linked reagent.
The target of data set [3] is T2, P2X purinoceptor 7 (Homo sapiens) (UniProt Q99572).
T2 sequence (whole entry): T1 sequence (Q99572 whole entry)
Nature of the data set: Ratio of IC50 for P2X7 receptor in human THP1 cells assessed as inhibition of BzATP-induced YO-PRO-1 Iodide uptake to IC50 for P2X7 receptor in LPS-stimulated human THP1 cells assessed as inhibition of LPS/BzATP-induced IL-1beta release. Type of data set: cell-based.

The nature of data set [4]: Half life in CD-1 mouse at 3 mg/kg, po administered as single dose via gavage by HPLC-MS/MS. Type of data set: ADME, organism-based. To be noted: in vivo.
Data set [5] has as its system Rattus norvegicus. The data set can be described thus: Intrinsic clearance in iv dosed rat. To be noted: in vivo. Type of data set: ADME, organism-based.
Data set [6] in a line: Half life in iv dosed rat. Type of data set: ADME, organism-based. Conditions: in vivo.

As to `N#C/N=C(/NCc1ccccc1)NCC12CC3CC(CC(C3)C1)C2`, the 50% inhibitory concentration (IC50) in data set [1] stood at 407 nM; in data set [2], 79 nM. In addition, the Ratio IC50 in data set [3] was found to be 5.2.

As for `N#C/N=C(/NCc1ccccc1F)NCC12CC3CC(CC(C3)C1)C2`, the half-maximal inhibitory concentration (IC50) in data set [1] was 501 nM. As to `N#C/N=C(/NCCc1ccccc1)NCC12CC3CC(CC(C3)C1)C2`, the IC50 in data set [1] came out at 4070 nM. On the same count and under the same terms, the same measure for `N#C/N=C(/NCc1ccccc1)NC12CC3CC(CC(C3)C1)C2`: more than 10000 nM.

For `N#C/N=C(\NCC12CC3CC(CC(C3)C1)C2)Nc1cccc2ncccc12`, the concentration for half-maximal inhibition (IC50) is 18 nM in data set [1] and 2 nM in data set [2]. The Ratio IC50 in data set [3] is 9. `COc1ccc(CN/C(=N/C#N)NCC23CC4CC(CC(C4)C2)C3)cc1`: the IC50 in data set [1] is more than 10000 nM. As to `N#C/N=C(/NCc1cccc(F)c1)NCC12CC3CC(CC(C3)C1)C2`, the values for the IC50 in data set [1] and in data set [2] were 708 nM and 132 nM, respectively. Moreover, in data set [3], the Ratio IC50 worked out at 5.4. In the case of `COc1ccccc1N/C(=N/C#N)NCC12CC3CC(CC(C3)C1)C2`, the concentration for half-maximal inhibition (IC50) in data set [1] stood at 51 nM. Take `COc1ccc(N/C(=N/C#N)NCC23CC4CC(CC(C4)C2)C3)cc1`: the IC50 in data set [1] worked out at 562 nM. On the same count and under the same terms, to `N#C/N=C(\NCC12CC3CC(CC(C3)C1)C2)Nc1cccnc1` belongs 214 nM. In the case of `c1cnc2cc3c(cc2n1)[C@@H]1CNC[C@H]3C1` [VARENICLINE], in data set [4], the half-life was 1.4 h. Regarding `O=C(CC12CC3CC(CC(C3)C1)C2)Nc1ccc2[nH]ncc2c1`, the CL in data set [5] was 47 mL/min/kg. In addition, in data set [6], the half-life was 1 h. `N#C/N=C(\NCC12CC3CC(CC(C3)C1)C2)Nc1ccc(F)cc1`: the half-inhibitory concentration (IC50) in data set [1] is 174 nM. For the compound `N#C/N=C(/NCc1ccccn1)NCC12CC3CC(CC(C3)C1)C2`, the half-inhibitory concentration (IC50) was found to be 234 nM in data set [1] and 138 nM in data set [2]. Also, in data set [3], the Ratio IC50 stood at 1.7. On to `COc1ccccc1CN/C(=N/C#N)NCC12CC3CC(CC(C3)C1)C2`, for which the half-inhibitory concentration (IC50) in data set [1] amounted to 562 nM.
